Test results taken from the SangsterLogP compilation.

Assay: method code SF-AS, from Smul'skii, S.; Bogatskii, A.; Andronati, S.; Vikhlyaev, Yu.; Zhilina, Z. (1977). Lipophilic nature of quinazolin-2-ones and 1,2-dihydro-3H-1,4-benzodiazepin-2-ones. Otdel. Khim. Nauk., 235(2)369-371.
Conditions: pH 7.4

Row | Compound | logD
1 | O=c1nc(-c2ccccc2)c2ccccc2[nH]1 | 1.91
2 | O=c1nc(-c2ccccc2)c2cc(Cl)ccc2[nH]1 | 2.53
3 | CCC1N=C(c2ccccc2)c2cc(Br)ccc2NC1=O (configuration not stated) | 3.79
4 | CCCC1N=C(c2ccccc2)c2cc(Cl)ccc2NC1=O (configuration not stated) | 4.14
5 | CC1N=C(c2ccccc2)c2cc(Cl)ccc2N(C)C1=O (configuration not stated) | 3.68
6 | CC1N=C(c2ccccc2)c2cc(Cl)ccc2NC1=O (configuration not stated) | 3.25
7 | O=C1CN(O)C(c2ccccc2)=c2cc(Br)ccc2=N1 | 1.53
8 | O=C1CN=C(c2ccccc2)c2cc(Br)ccc2N1 | 3.11
9 | O=C1Nc2ccc(Br)cc2C(c2ccccc2Cl)=NC1O (configuration not stated) | 2.54
10 | O=c1nc(-c2ccccc2)c2cc(Br)ccc2[nH]1 | 2.71
11 | CC(C)C1N=C(c2ccccc2)c2cc(Cl)ccc2NC1=O (configuration not stated) | 4
12 | Cc1ccc2[nH]c(=O)nc(-c3ccccc3)c2c1 | 2.32
13 | CC(C)C1N=C(c2ccccc2)c2cc(Br)ccc2NC1=O (configuration not stated) | 4.18
14 | Cc1ccc2c(c1)=C(c1ccccc1)N(O)CC(=O)N=2 | 1.13
15 | CC(=O)OC1N=C(c2ccccc2)c2cc(Cl)ccc2NC1=O (configuration not stated) | 2.6
16 | O=C1CN=C(c2ccccc2Cl)c2cc(Br)ccc2N1 | 3.3
17 | CC(=O)OC1N=C(c2ccccc2)c2cc(Br)ccc2NC1=O (configuration not stated) | 2.76
